# Source: patent publication US10988524B2, “Modified relaxin B chain peptides and their therapeutic use” (priority 2018, dated 2021)
# Non-standard residues stand in square brackets, D forms with d. Residues, ends and D or L forms follow the SMILES beside them. Phe(4-F) = N[C@@H](Cc1ccc(F)cc1)C(=O)O; Nle = CCCC[C@H](N)C(=O)O; Aib = CC(C)(N)C(=O)O
# Tests used:
# RXFP1 = molecular target: T1, RXFP1 (Homo sapiens, UniProt Q9HBX9); assay: OVCAR5 cAMP assay (RXFP1 agonist activity, HTRF); conditions: for Emax: OVCAR-5, read-out: cAMP assay in OVCAR 5 cells Emax, maximal intracellular cAMP relative to H2-relaxin in the same test occasion
# T1 sequence (Q9HBX9 1-757): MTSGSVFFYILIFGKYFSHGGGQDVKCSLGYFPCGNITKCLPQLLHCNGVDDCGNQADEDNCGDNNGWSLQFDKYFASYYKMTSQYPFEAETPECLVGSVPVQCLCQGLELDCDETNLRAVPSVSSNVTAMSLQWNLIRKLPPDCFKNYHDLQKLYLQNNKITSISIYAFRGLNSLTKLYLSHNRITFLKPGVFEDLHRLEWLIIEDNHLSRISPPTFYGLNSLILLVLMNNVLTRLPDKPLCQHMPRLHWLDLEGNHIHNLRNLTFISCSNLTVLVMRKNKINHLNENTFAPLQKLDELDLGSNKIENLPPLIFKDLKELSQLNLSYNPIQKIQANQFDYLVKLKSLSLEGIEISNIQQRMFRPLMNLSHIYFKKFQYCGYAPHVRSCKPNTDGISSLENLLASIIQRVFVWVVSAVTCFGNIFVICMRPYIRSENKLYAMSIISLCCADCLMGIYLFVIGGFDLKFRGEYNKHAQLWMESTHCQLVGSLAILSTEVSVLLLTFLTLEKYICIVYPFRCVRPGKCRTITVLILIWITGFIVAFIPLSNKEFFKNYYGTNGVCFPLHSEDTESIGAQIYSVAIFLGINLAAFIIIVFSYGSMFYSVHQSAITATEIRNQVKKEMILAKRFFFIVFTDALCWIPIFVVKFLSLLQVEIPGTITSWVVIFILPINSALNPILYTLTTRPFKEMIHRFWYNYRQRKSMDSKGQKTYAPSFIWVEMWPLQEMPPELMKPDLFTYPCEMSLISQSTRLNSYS
# [1] = Solubility testing of peptides in buffer; assay type: physicochemical; conditions: Phosphate buffer 50 mM pH 7.4; target solubility 2.0 mg/ml; ~19 h; read-out: Solubility phosphate buffer pH 7.4
Emax (RXFP1),solubility [1],cAMP assay in OVCAR 5 cells Emax (RXFP1; maximal intracellular cAMP relative to H2-relaxin in the same test occasion),Compound
95%,≥ 2500 µg/mL,,CCCC[C@H](NC(=O)CNC(=O)[C@H](CCC(=O)O)NC(=O)C(C)(C)NC(=O)C(C)(C)NC(=O)[C@@H](NC(=O)[C@H](CCC(N)=O)NC(=O)[C@H](CCCNC(=N)N)NC(=O)[C@H](CCCNC(=N)N)NC(=O)[C@@H](NC(=O)[C@H](CCCCN)NC(=O)[C@H](CCC(=O)O)NC(=O)[C@H](CCCNC(=N)N)NC(=O)CNC(=O)[C@H](CCC(=O)O)NC(=O)[C@H](CC(C)C)NC(C)=O)C(C)C)[C@@H](C)CC)C(=O)N[C@@H](CO)C(=O)N[C@H](C(=O)N[C@@H](Cc1c[nH]c2ccccc12)C(=O)N[C@@H](CO)C(=O)NC(C)(C)C(=O)N[C@@H](CCCNC(=N)N)C(=O)N[C@@H](CCCCN)C(=O)N[C@@H](CCCCN)C(N)=O)[C@@H](C)O [compound 49] (Ac-LEGREKVRRQI[Aib][Aib]EG[Nle]STWS[Aib]RKK-NH2)
,≥ 2400 µg/mL,96%,CC[C@H](C)[C@H](NC(=O)[C@H](CCC(N)=O)NC(=O)[C@H](C)NC(=O)[C@H](CCCNC(=N)N)NC(=O)[C@@H](NC(=O)[C@H](CCCCN)NC(=O)[C@H](CCC(=O)O)NC(=O)[C@H](CCCNC(=N)N)NC(=O)CNC(=O)[C@H](CCC(=O)O)NC(=O)[C@H](CC(C)C)NC(C)=O)C(C)C)C(=O)NC(C)(C)C(=O)NC(C)(C)C(=O)N[C@@H](CCC(=O)O)C(=O)NCC(=O)N[C@@H](CCC(N)=O)C(=O)N[C@@H](CO)C(=O)N[C@H](C(=O)N[C@@H](Cc1c[nH]c2ccccc12)C(=O)N[C@@H](CO)C(=O)NC(C)(C)C(=O)N[C@@H](CCCNC(=N)N)C(=O)N[C@@H](CCCCN)C(=O)N[C@@H](CCCCN)C(N)=O)[C@@H](C)O [compound 54] (Ac-LEGREKVRAQI[Aib][Aib]EGQSTWS[Aib]RKK-NH2)
75%,≥ 2100 µg/mL,,CCCC[C@H](NC(=O)CNC(=O)[C@H](CCC(=O)O)NC(=O)C(C)(C)NC(=O)C(C)(C)NC(=O)[C@@H](NC(=O)[C@H](CCC(N)=O)NC(=O)[C@H](C)NC(=O)[C@H](CCCNC(=N)N)NC(=O)[C@@H](NC(=O)[C@H](CCCCN)NC(=O)[C@H](CCC(=O)O)NC(=O)[C@H](CCCNC(=N)N)NC(=O)CNC(=O)[C@H](CCC(=O)O)NC(=O)[C@H](CC(C)C)NC(C)=O)C(C)C)[C@@H](C)CC)C(=O)N[C@@H](CO)C(=O)N[C@H](C(=O)N[C@@H](Cc1ccc(O)cc1)C(=O)N[C@@H](CO)C(=O)NC(C)(C)C(=O)N[C@@H](CCCNC(=N)N)C(=O)N[C@@H](CCCCN)C(=O)N[C@@H](CCCCN)C(N)=O)[C@@H](C)O [compound 53] (Ac-LEGREKVRAQI[Aib][Aib]EG[Nle]STYS[Aib]RKK-NH2)
86%,≥ 2400 µg/mL,,CC[C@H](C)[C@H](NC(=O)[C@H](CCC(N)=O)NC(=O)[C@H](C)NC(=O)[C@H](CCCNC(=N)N)NC(=O)[C@@H](NC(=O)[C@H](CCCCN)NC(=O)[C@H](CCC(=O)O)NC(=O)[C@H](CCCNC(=N)N)NC(=O)CNC(=O)[C@H](CCC(=O)O)NC(=O)[C@H](CC(C)C)NC(C)=O)C(C)C)C(=O)NC(C)(C)C(=O)NC(C)(C)C(=O)N[C@@H](CCC(=O)O)C(=O)NCC(=O)N[C@@H](CCC(N)=O)C(=O)N[C@@H](CO)C(=O)N[C@H](C(=O)N[C@@H](Cc1ccc(F)cc1)C(=O)N[C@@H](CO)C(=O)NC(C)(C)C(=O)N[C@@H](CCCNC(=N)N)C(=O)N[C@@H](CCCCN)C(=O)N[C@@H](CCCCN)C(N)=O)[C@@H](C)O [compound 59] (Ac-LEGREKVRAQI[Aib][Aib]EGQST[Phe(4-F)]S[Aib]RKK-NH2)
